One compound from PMC5003771 (Molecular microbiology, 2015) can be followed below.

One experiment has as its target CabPA (Streptococcus mutans, UniProt Q8DT33). Nature of the experiment: DRaCALA, […]-labelled c-di-AMP on nitrocellulose. The format is binding.
In the next experiment the target is CabPB (Streptococcus mutans, UniProt Q8DSR3). Briefly: DRaCALA, […]-labelled c-di-AMP on nitrocellulose. The format is binding.

The Kd is the constant that tells how readily two partners part at equilibrium. High values mean weaker binding, low ones tighter binding.

For `Nc1ncnc2c1ncn2[C@@H]1O[C@@H]2COP(=O)(O)O[C@H]3[C@@H](O)[C@H](n4cnc5c(N)ncnc54)O[C@@H]3COP(=O)(O)O[C@H]2[C@H]1O` [c-di-AMP], the figures for the dissociation constant Kd at CabPA and at CabPB were 7.8 ± 0.3 µM and 1.2 ± 0.2 µM, respectively.
